Tests used:
Experiment in all cases: Test A pre-/postemergence greenhouse test
Type in all cases: in vivo
[1] = system: barnyardgrass (Echinochloa crus-galli)
From the text: (§1) Seeds of plant species selected from barnyardgrass (Echinochloa crus-galli), kochia (Kochia scoparia), ragweed (common ragweed, Ambrosia elatior), ryegrass, Italian (Lolium multiflorum), foxtail, giant (Setaria faberii), foxtail, green (Setaria viridis) and pigweed (Amaranthus retroflexus) were planted into a blend of loam soil and sand and treated preemergence with a directed soil spray using test chemicals formulated in a non-phytotoxic solvent mixture which included a surfactant.
(§2) At the same time, plants selected from these weed species and also wheat (Triticum aestivum), corn (Zea mays), blackgrass (Alopecurus myosuroides) and galium (catchweed bedstraw, Galium aparine) were planted in pots containing the same blend of loam soil and sand and treated with postemergence applications of test chemicals formulated in the same manner. Plants ranged in height from 2 to 10 cm and were in the one- to two-leaf stage for the postemergence treatment. Treated plants and untreated controls were maintained in a greenhouse for approximately 10 d, after which time all treated plants were compared to untreated controls and visually evaluated for injury. Plant response ratings, summarized in Table A, are based on a 0 to 100 scale where 0 is no effect and 100 is complete control. A dash (-) response means no test result.

kochia (Kochia scoparia) = system: kochia (Kochia scoparia)
From the text: as §1, §2

[2] = system: pigweed (Amaranthus retroflexus)
From the text: as §1, §2

[3] = system: ragweed (common ragweed, Ambrosia elatior)
From the text: as §1, §2

[4] = system: ryegrass, Italian (Lolium multiflorum)
From the text: as §1, §2

Measured: Plant response rating (0 to 100 scale)

Cc1ccc2ccc(F)cc2c1-c1c(O)c(Cl)nn(C)c1=O [Cpd. No. 21]
100: [1]; Preemergence, 125 g ai/ha | kochia (Kochia scoparia); Preemergence, 125 g ai/ha | [2]; Postemergence, 31 g ai/ha | [2]; Postemergence, 125 g ai/ha | [2]; Preemergence, 31 g ai/ha | [2]; Preemergence, 125 g ai/ha | [3]; Postemergence, 31 g ai/ha | [3]; Postemergence, 125 g ai/ha | [3]; Preemergence, 31 g ai/ha | [3]; Preemergence, 125 g ai/ha | [4]; Postemergence, 125 g ai/ha | [4]; Preemergence, 125 g ai/ha
50: kochia (Kochia scoparia); Preemergence, 31 g ai/ha
90: [1]; Postemergence, 125 g ai/ha | [1]; Preemergence, 31 g ai/ha | kochia (Kochia scoparia); Postemergence, 125 g ai/ha | [4]; Postemergence, 31 g ai/ha
80: [1]; Postemergence, 31 g ai/ha | kochia (Kochia scoparia); Postemergence, 31 g ai/ha | [4]; Preemergence, 31 g ai/ha
